Assay results published in patent publication US9695155B2, “Herbicidal substituted pyrimidinyloxy benzene compounds” (E. I. DU PONT DE NEMOURS AND COMPANY, priority 2013, dated 2017).

How the values were obtained:
surinam grass = experiment: Test C postemergence; type: in vivo, Brachiaria decumbens; conditions: for Plant response rating, Surinam Grass: Postemergence, scale 0 to 100 (0 no effect, 100 complete control)
Text: (§1) Seeds of plant species selected from blackgrass (Alopecurus myosuroides), Italian ryegrass (Lolium multiflorum), wheat, winter (winter wheat, Triticum aestivum), galium (catchweed bedstraw, Galium aparine), corn (Zea mays), large (Lg) crabgrass (Digitaria sanguinalis), giant foxtail (Setaria faberii), johnsongrass (Sorghum halepense), lambsquarters (Chenopodium album), morningglory (Ipomoea coccinea), yellow nutsedge (Cyperus esculentus), pigweed (Amaranthus retroflexus), ragweed (common ragweed, Ambrosia elatior), soybean (Glycine max), barnyardgrass (Echinochloa crus-galli), oilseed rape (Brassica napus), waterhemp (common waterhemp, Amaranthus rudis), kochia (Kochia scoparia), wild oat (Avena fatua), surinam grass (Brachiaria decumbens), foxtail, green (green foxtail, Setaria viridis), goosegrass (Eleusine indica), bromegrass, downy (downy bromegrass, Bromus tectorum), nightshade (eastern black nightshade, Solanum ptycanthum), cocklebur (common cocklebur, Xanthium strumarium), cupgrass, woolly (woolly cupgrass, Eriochloa villosa), bermudagrass (Cynodon dactylon), sunflower, (common oilseed sunflower, Helianthus annuus), Russian thistle (Salsola kali), and velvetleaf (Abutilon theophrasti) were planted into a blend of loam soil and sand and treated preemergence with test chemicals formulated in a non-phytotoxic solvent mixture which included a surfactant.
At the same time, plants selected from these crop and weed species and also barley, winter (winter barley, Hordeum vulgare), windgrass (Apera spica-venti), chickweed (common chickweed, Stellaria media), deadnettle (henbit deadnettle, Lamium amplexicaule), and canarygrass (littleseed canarygrass, Phalaris minor) were planted in pots containing Redi-Earth® planting medium (Scotts Company, 14111 Scottslawn Road, Marysville, Ohio 43041) comprising spaghnum peat moss, vermiculite, wetting agent and starter nutrients and treated with postemergence applications of test chemicals formulated in the same manner. Plants ranged in height from 2 to 18 cm (1- to 4-leaf stage) for postemergence treatments. […]

foxtail, green = experiment: Test C postemergence; type: in vivo, Setaria viridis; conditions: for Plant response rating (0 to 100), Foxtail, Green: postemergence; for Plant response rating, Foxtail, Green: Postemergence, scale 0 to 100 (0 no effect, 100 complete control)
Text: as §1
(§2) At the same time, plants selected from these crop and weed species and also barley, winter (winter barley, Hordeum vulgare), windgrass (Apera spica-venti), chickweed (common chickweed, Stellaria media), deadnettle (henbit deadnettle, Lamium amplexicaule), and canarygrass (littleseed canarygrass, Phalaris minor) were planted in pots containing Redi-Earth® planting medium (Scotts Company, 14111 Scottslawn Road, Marysville, Ohio 43041) comprising spaghnum peat moss, vermiculite, wetting agent and starter nutrients and treated with postemergence applications of test chemicals formulated in the same manner. Plants ranged in height from 2 to 18 cm (1- to 4-leaf stage) for postemergence treatments. Treated plants and controls were maintained in a greenhouse for 13 to 15 days, after which time all species were compared to controls and visually evaluated. Plant response ratings, summarized in Table C, are based on a scale of 0 to 100 where 0 is no effect and 100 is complete control. A dash (-) response means no test result.

goosegrass = experiment: Test C postemergence; type: in vivo, Eleusine indica; conditions: for Plant response rating (0 to 100), Goosegrass: postemergence; for Plant response rating, Goosegrass: Postemergence, scale 0 to 100 (0 no effect, 100 complete control)
Text: as §1, §2

bromegrass, downy = experiment: Test C postemergence; type: in vivo, Bromus tectorum; conditions: for Plant response rating (0 to 100), Bromegrass, Downy: postemergence; for Plant response rating, Bromegrass, Downy: Postemergence, scale 0 to 100 (0 no effect, 100 complete control)
Text: as §1, §2

cocklebur = experiment: Test C postemergence; type: in vivo, Xanthium strumarium; conditions: for Plant response rating (0 to 100), Cocklebur: postemergence; for Plant response rating, Cocklebur: Postemergence, scale 0 to 100 (0 no effect, 100 complete control)
Text: as §1, §2

cupgrass, woolly = experiment: Test C postemergence; type: in vivo, Eriochloa villosa; conditions: for Plant response rating (0 to 100), Cupgrass, Woolly: postemergence; for Plant response rating, Cupgrass, Woolly: Postemergence, scale 0 to 100 (0 no effect, 100 complete control)
Text: as §1, §2

bermudagrass = experiment: Test C postemergence; type: in vivo, Cynodon dactylon; conditions: for Plant response rating (0 to 100), Bermudagrass: postemergence; for Plant response rating, Bermudagrass: Postemergence, scale 0 to 100 (0 no effect, 100 complete control)
Text: as §1, §2

barley, winter = experiment: Test C postemergence; type: in vivo, Hordeum vulgare; conditions: for Plant response rating (0 to 100), Barley: postemergence; for Plant response rating, Barley: Postemergence, scale 0 to 100 (0 no effect, 100 complete control)
Text: as §1, §2

windgrass = experiment: Test C postemergence; type: in vivo, Apera spica-venti; conditions: for Plant response rating (0 to 100), Windgrass: postemergence; for Plant response rating, Windgrass: Postemergence, scale 0 to 100 (0 no effect, 100 complete control)
Text: as §1, §2

deadnettle = experiment: Test C postemergence; type: in vivo, Lamium amplexicaule; conditions: for Plant response rating (0 to 100), Deadnettle: postemergence; for Plant response rating, Deadnettle: Postemergence, scale 0 to 100 (0 no effect, 100 complete control)
Text: as §1, §2

canarygrass = experiment: Test C postemergence; type: in vivo, Phalaris minor; conditions: for Plant response rating (0 to 100), Canarygrass: postemergence; for Plant response rating, Canarygrass: Postemergence, scale 0 to 100 (0 no effect, 100 complete control)
Text: as §1, §2

smartweed = experiment: Test E preemergence; type: in vivo, ladysthumb smartweed; conditions: for Smartweed plant response rating: scale 0 to 100 (0 no effect, 100 complete control); for Plant response rating, Smartweed: scale 0 to 100, 0 no effect, 100 complete control
Text: Seeds of plant species selected from corn (Zea mays), soybean (Glycine max), velvetleaf (Abutilon theophrasti), lambsquarters (Chenopodium album), wild poinsettia (Euphorbia heterophylla), palmer pigweed (Amaranthus palmeri), waterhemp (common waterhemp, Amaranthus rudis), surinam grass (Brachiaria decumbens), large (Lg) crabgrass (Digitaria sanguinalis), Brazilian crabgrass (Digitaria horizontalis), fall panicum (Panicum dichotomiflorum), giant foxtail (Setaria faberii), green foxtail (Setaria viridis), goosegrass (Eleusine indica), johnsongrass (Sorghum halepense), ragweed (common ragweed, Ambrosia elatior), barnyardgrass (Echinochloa crus-galli), sandbur (southern sandbur, Cenchrus echinatus), arrowleaf sida (Sida rhombifolia), Italian ryegrass (Lolium multiflorum), dayflower (Virginia (VA) dayflower, Commelina virginica), field bindweed (Convolvulus arvensis), morningglory (Ipomoea coccinea), nightshade (eastern black nightshade, Solanum ptycanthum), kochia (Kochia scoparia), yellow nutsedge (Cyperus esculentus), cocklebur (common cocklebur, Xanthium strumarium), smartweed (ladysthumb smartweed, and hairy beggarticks (Bidens pilosa), were planted into a silt loam soil and treated preemergence with test chemicals formulated in a non-phytotoxic solvent mixture which included a surfactant.
At the same time, plants from these crop and weed species and also horseweed (Canada horseweed, Conyza canadensis), waterhemp_RES1, (ALS & Triazine resistant common waterhemp, Amaranthus rudis), and waterhemp_RES2, (ALS & HPPD resistant common waterhemp, Amaranthus rudis) were planted in pots containing Redi-Earth® planting medium (Scotts Company, 14111 Scottslawn Road, Marysville, Ohio 43041) comprising spaghnum peat moss, vermiculite, wetting agent and starter nutrients were treated with postemergence applications of test chemicals formulated in the same manner. Plants ranged in height from 2 to 18 cm for postemergence treatments (1- to 4-leaf stage). Treated plants and controls were maintained in a greenhouse for 14 to 21 days, after which time all species were compared to controls and visually evaluated. Plant response ratings, summarized in Table E, are based on a scale of 0 to 100 where 0 is no effect and 100 is complete control. A dash (-) response means no test result.

## Clc1cnn(-c2ccccc2Oc2ncc(Br)cn2)c1 [Compound 5, 5-bromo-2-[2-(4-chloro-1H-pyrazol-1-yl)phenoxy]pyrimidine]
Surinam grass; 125 g ai/ha, postemergence
  Plant response rating (0 to 100), Surinam Grass: 45
Surinam grass; 31 g ai/ha, 13 to 15 days
  Plant response rating, Surinam Grass: 10
Surinam grass; 62 g ai/ha
  Plant response rating, Surinam Grass: 35
foxtail, green; 125 g ai/ha
  Plant response rating (0 to 100), Foxtail, Green: 40
foxtail, green; 250 g ai/ha
  Plant response rating (0 to 100), Foxtail, Green: 70
foxtail, green; 31 g ai/ha, 13 to 15 days
  Plant response rating, Foxtail, Green: 0
foxtail, green; 62 g ai/ha
  Plant response rating, Foxtail, Green: 40
goosegrass; 125 g ai/ha
  Plant response rating (0 to 100), Goosegrass: 10
goosegrass; 250 g ai/ha
  Plant response rating (0 to 100), Goosegrass: 15
goosegrass; 31 g ai/ha, 13 to 15 days
  Plant response rating, Goosegrass: 0
goosegrass; 62 g ai/ha
  Plant response rating, Goosegrass: 5
bromegrass, downy; 125 g ai/ha
  Plant response rating (0 to 100), Bromegrass, Downy: 5
bromegrass, downy; 250 g ai/ha
  Plant response rating (0 to 100), Bromegrass, Downy: 10
bromegrass, downy; 31 g ai/ha, 13 to 15 days
  Plant response rating, Bromegrass, Downy: 5
bromegrass, downy; 62 g ai/ha
  Plant response rating, Bromegrass, Downy: 5
cocklebur; 125 g ai/ha
  Plant response rating (0 to 100), Cocklebur: 50
cocklebur; 250 g ai/ha
  Plant response rating (0 to 100), Cocklebur: 65
cocklebur; 31 g ai/ha, 13 to 15 days
  Plant response rating, Cocklebur: 25
cocklebur; 62 g ai/ha
  Plant response rating, Cocklebur: 50
cupgrass, woolly; 125 g ai/ha
  Plant response rating (0 to 100), Cupgrass, Woolly: 10
cupgrass, woolly; 250 g ai/ha
  Plant response rating (0 to 100), Cupgrass, Woolly: 30
cupgrass, woolly; 31 g ai/ha, 13 to 15 days
  Plant response rating, Cupgrass, Woolly: 0
cupgrass, woolly; 62 g ai/ha
  Plant response rating, Cupgrass, Woolly: 10
bermudagrass; 125 g ai/ha
  Plant response rating (0 to 100), Bermudagrass: 10
bermudagrass; 250 g ai/ha
  Plant response rating (0 to 100), Bermudagrass: 35
bermudagrass; 31 g ai/ha, 13 to 15 days
  Plant response rating, Bermudagrass: 0
bermudagrass; 62 g ai/ha
  Plant response rating, Bermudagrass: 0
barley, winter; 125 g ai/ha
  Plant response rating (0 to 100), Barley: 5
barley, winter; 250 g ai/ha
  Plant response rating (0 to 100), Barley: 10
barley, winter; 31 g ai/ha, 13 to 15 days
  Plant response rating, Barley: 0
barley, winter; 62 g ai/ha
  Plant response rating, Barley: 0
windgrass; 125 g ai/ha
  Plant response rating (0 to 100), Windgrass: 60
windgrass; 250 g ai/ha
  Plant response rating (0 to 100), Windgrass: 85
windgrass; 31 g ai/ha, 13 to 15 days
  Plant response rating, Windgrass: 10
windgrass; 62 g ai/ha
  Plant response rating, Windgrass: 40
deadnettle; 125 g ai/ha
  Plant response rating (0 to 100), Deadnettle: 90
deadnettle; 250 g ai/ha
  Plant response rating (0 to 100), Deadnettle: 90
deadnettle; 31 g ai/ha, 13 to 15 days
  Plant response rating, Deadnettle: 50
deadnettle; 62 g ai/ha
  Plant response rating, Deadnettle: 50
canarygrass; 125 g ai/ha
  Plant response rating (0 to 100), Canarygrass: 30
canarygrass; 250 g ai/ha
  Plant response rating (0 to 100), Canarygrass: 40
canarygrass; 31 g ai/ha, 13 to 15 days
  Plant response rating, Canarygrass: 5
canarygrass; 62 g ai/ha
  Plant response rating, Canarygrass: 10

## N#Cc1cccc(Oc2ncc(Cl)cn2)c1-n1cc(Cl)cn1 [Compound 72]
smartweed; 16 g ai/ha
  Smartweed plant response rating: 0
smartweed; 31 g ai/ha
  Smartweed plant response rating: 0
smartweed; 62 g ai/ha
  Smartweed plant response rating: 0
smartweed; 125 g ai/ha
  Plant response rating, Smartweed: 90
smartweed; 250 g ai/ha
  Plant response rating, Smartweed: 98
